Measured values published in PubChem BioAssay AID743164 (Broad Institute, 2013).
Activity calls are given as the source filed them. The rule behind the calls is not given here.

Columns and labels:
[1] = IC90 against starved M. tuberculosis, dose response, CFU by imaging, dry powder, 7108-04 (AID 743164); details: Mycobacterium tuberculosis, starved, CFU imaging
[2] = tested on: Mycobacterium tuberculosis, starved, CFU imaging; experiment: as above

| SMILES | outcome [1] | IC90 [2] |
| --- | --- | --- |
| CCOC(=O)NC(=O)c1ccsc1NC(=O)c1nc2ccccc2s1 | inactive |  |
| Cn1c(NC(=O)c2ccccc2)nc2ccccc21 |  | < 8 µM |
